Laboratory results reported in ChEMBL document CHEMBL1147953, “9-Nitroanthracene derivative as a precursor of anthraquinone for photodynamic therapy” (Bioorg Med Chem, 2007).
Active and inactive are the calls of the source. The rule behind the calls is not given here.

What was measured:
Escherichia coli [1] = assay: Induction of strand cleavage in pBR322 DNA after irradiation with 5 J/cm^2 assessed as conversion of supercoiled DNA to […] circular form at 200 uM
Escherichia coli [2] = assay: Induction of strand cleavage in pBR322 DNA in absence of irradiation assessed as conversion of supercoiled DNA to […] circular form at 200 uM

Compound | Activity (Escherichia coli [1]) | Activity (Escherichia coli [2])
CN(C)CCCC(=O)Nc1ccc2cc3ccccc3cc2c1[N+](=O)[O-] | Active | inactive
CN(C)CCCC(=O)Nc1ccc2cc3ccccc3c([N+](=O)[O-])c2c1 | Active | inactive
